Each compound was assayed against motor domain of human KSP (Eg 5, KNSL1) (Homo sapiens (Human), UniProt P52732) (assay: Assay for determining KSP activity (microtubule-stimulated ATPase, Biomol Green phosphate detection)). Conditions: KSP motor domain 3 nM, bovine brain microtubules 50 μg/mL, 2 hours at RT, absorbance at 650 nm; read-out: Biological Activity (IC50).
Sequence of motor domain of human KSP (Eg 5, KNSL1) (P52732 18-359): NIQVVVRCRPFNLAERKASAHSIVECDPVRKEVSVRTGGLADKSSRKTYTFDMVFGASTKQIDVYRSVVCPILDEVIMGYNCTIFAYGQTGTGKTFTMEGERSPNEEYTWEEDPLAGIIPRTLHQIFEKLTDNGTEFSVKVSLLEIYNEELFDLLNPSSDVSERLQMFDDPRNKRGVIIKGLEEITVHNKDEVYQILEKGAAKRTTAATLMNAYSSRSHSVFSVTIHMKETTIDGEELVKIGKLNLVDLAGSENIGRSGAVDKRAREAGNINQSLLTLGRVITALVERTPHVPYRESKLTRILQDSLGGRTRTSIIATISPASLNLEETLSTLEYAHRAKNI
Format: biochemical
Protocol: This example provides a representative in vitro assay for determining KSP activity in vitro. Purified microtubules obtained from bovine brain were purchased from Cytoskeleton Inc. (Denver, Colo., USA). The motor domain of human KSP (Eg 5, KNSL1) was cloned, expressed, and purified to greater than 95% homogeneity. Biomol Green was purchased from BIOMOL International L.P. (Plymouth Meeting, Pa., USA). The microtubules were rapidly thawed at 37° C. for 10 minutes before making dilution. Microtubules and KSP motor protein (i.e., the KSP motor domain) were diluted in assay buffer (20 mM Tris-HCl (pH 7.5), 1 mM MgCl2, 10 mM DTT and 0.125% BSA) to a final concentration of 50 μg/mL microtubules and 3 nM KSP.
To each well of the testing plate (96-well half area plate) containing 1.25 μL of inhibitor or test compound in DMSO (or DMSO only in the case of controls) were added 25 μL of ATP solution (ATP diluted to a concentration of 250 μM in assay buffer) and 25 μL of the above-described microtubule/KSP solution. The plates were incubated at RT for 2 hours. Following incubation, 65 μL of Biomol Green (a malachite green-based dye that detects the release of inorganic phosphate) with 0.015% Tween 20 was added to each well. The plates were incubated for an additional 15-20 minutes then the absorbance at 650 nm was determined using a Molecular Devices Spectrophotometer. The amount of absorbance at 650 nm corresponded to the amount of KSP activity in the samples. The IC50 of each inhibitor or test compound was then determined based on the decrease in absorbance at 650 nm at each concentration, via nonlinear regression using either XLFit for Excel or Prism data analysis software by GraphPad Software Inc.
With `CC(C)(C)C(c1nc(-c2cc(F)ccc2F)nn1Cc1cccc(F)c1)N(CC1CNC[C@@H]1F)C(=O)C1CCCO1` (stereo in doubt) [Compound 5, (S)—N—((R)-1-(3-(2,5-difluorophenyl)-1-(3-fluorobenzyl)-1H-1,2,4-triazol-5-yl)-2,2-dimethylpropyl)-N-(((3R,4R)-4-fluoropyrrolidin-3-yl)methyl)tetrahydrofuran-2-carboxamide] the IC50 was 1.46 nM.
In the case of `C[C@H](O)C(=O)N(CC1CNC[C@@H]1F)[C@@H](c1nc(-c2cc(F)ccc2F)nn1Cc1ccccc1)C(C)(C)C` (stereo in doubt) [Compound 4, (S)—N—((R)-1-(1-benzyl-3-(2,5-difluorophenyl)-1H-1,2,4-triazol-5-yl)-2,2-dimethylpropyl)-N-(((3R,4R)-4-fluoropyrrolidin-3-yl)methyl)-2-hydroxypropanamide], the IC50 is reported as 0.6 nM.
`CC(C)(C)[C@H](c1nc(-c2cc(F)ccc2F)nn1Cc1ccccc1)N(CC1CNC[C@@H]1F)C(=O)C1CCCO1` (stereo in doubt) [Compound 1, (S)—N—((R)-1-(1-benzyl-3-(2,5-difluorophenyl)-1H-1,2,4-triazol-5-yl)-2,2-dimethylpropyl)-N-(((3R,4R)-4-fluoropyrrolidin-3-yl)methyl)tetrahydrofuran-2-carboxamide] showed an IC50 of 0.96 nM.
With `C[C@H](O)C(=O)N(CC1CNC[C@@H]1F)[C@@H](c1nc(-c2cc(F)ccc2F)nn1Cc1cccc(F)c1)C(C)(C)C` (stereo in doubt) [Compound 6, (S)—N—((R)-1-(3-(2,5-difluorophenyl)-1-(3-fluorobenzyl)-1H-1,2,4-triazol-5-yl)-2,2-dimethylpropyl)-N-(((3R,4R)-4-fluoropyrrolidin-3-yl)methyl)-2-hydroxypropanamide] the IC50 was 0.83 nM.
In the case of `C[C@@H]1CN(C(=O)N(C[C@@H]2CNC[C@@H]2F)[C@@H](c2nc(-c3cc(F)ccc3F)nn2Cc2ccccc2)C(C)(C)C)C[C@H](C)O1` (stereo in doubt) [Compound 2, N—((R)-1-(1-benzyl-3-(2,5-difluorophenyl)-1H-1,2,4-triazol-5-yl)-2,2-dimethylpropyl)-N-(((3R,4R)-4-fluoropyrrolidin-3-yl)methyl)-2,6-dimethylmorpholine-4-carboxamide], the IC50 is reported as 0.83 nM.
Work on `C[C@@H]1CN(C(=O)N(C[C@@H]2CNC[C@@H]2F)[C@@H](c2nc(-c3cc(F)ccc3F)nn2Cc2cccc(F)c2)C(C)(C)C)C[C@H](C)O1` (stereo in doubt) [Compound 3, N—((R)-1-(3-(2,5-difluorophenyl)-1-(3-fluorobenzyl)-1H-1,2,4-triazol-5-yl)-2,2-dimethylpropyl)-N-(((3R,4R)-4-fluoropyrrolidin-3-yl)methyl)-2,6-dimethylmorpholine-4-carboxamide] yielded an IC50 of 0.74 nM.

Same assay, conditions: KSP motor domain 3 nM, bovine brain microtubules 50 μg/mL, 2 hours at RT, absorbance at 650 nm; read-out: KSP IC50
With `COC(C)(C)[C@H](c1nc(-c2cc(F)ccc2F)nn1Cc1cccc(F)c1)N(C[C@@H]1CNC[C@@H]1F)C(=O)[C@H](C)O` [Compound 12] the IC50 was 0.87 nM.
In the case of `COC(C)(C)[C@H](c1nc(-c2cc(F)ccc2F)nn1Cc1ccccc1)N(C[C@@H]1CNC[C@@H]1F)C(=O)[C@@H]1CCCO1` [Compound 13], the IC50 is reported as 0.69 nM.
For `COC(C)(C)[C@H](c1nc(-c2cc(F)ccc2F)nn1Cc1ccccc1)N(CC[C@H](N)CF)C(=O)[C@@H]1CCCO1` [Compound 11], the IC50 was 1.4 nM.
Compound `COC(C)(C)[C@H](c1nc(-c2cc(F)ccc2F)nn1Cc1ccccc1)N(CC[C@H](N)CF)C(=O)[C@H](C)O` [Compound 14] has an IC50 of 2.34 nM.
Compound `COC(C)(C)[C@H](c1nc(-c2cc(F)ccc2F)nn1Cc1cccc(F)c1)N(CC[C@H](N)CF)C(=O)[C@@H]1CCCO1` [Compound 7] has an IC50 of 1.23 nM.
`CCN1C[C@@H](CN(C(=O)[C@@H]2CCCO2)[C@@H](c2nc(-c3cc(F)ccc3F)nn2Cc2cccc(F)c2)C(C)(C)OC)[C@@H](F)C1` [Compound 9] gave an IC50 of 49.4 nM.
`COC(C)(C)[C@H](c1nc(-c2cc(F)ccc2F)nn1Cc1cccc(F)c1)N(C[C@@H]1CNC[C@@H]1F)C(=O)[C@@H]1CCCO1` [Compound 10] was tested, and the IC50 was 0.9 nM.
With `COC(C)(C)[C@H](c1nc(-c2cc(F)ccc2F)nn1Cc1cccc(F)c1)N(CC[C@H](N)CF)C(=O)[C@H](C)O` [Compound 8] the IC50 was 1.49 nM.

Reference: patent publication US8546434B2, “Triazole compounds as KSP inhibitors” (Novartis AG, priority 2010, dated 2013)
